Source: ChEMBL document CHEMBL1150977, “A quantitative analysis of kinase inhibitor selectivity” (Nat Biotechnol, 2008)

Target: T1, Mitogen-activated protein kinase kinase kinase 5 (Homo sapiens, UniProt Q99683)
T1 sequence (Q99683 whole entry): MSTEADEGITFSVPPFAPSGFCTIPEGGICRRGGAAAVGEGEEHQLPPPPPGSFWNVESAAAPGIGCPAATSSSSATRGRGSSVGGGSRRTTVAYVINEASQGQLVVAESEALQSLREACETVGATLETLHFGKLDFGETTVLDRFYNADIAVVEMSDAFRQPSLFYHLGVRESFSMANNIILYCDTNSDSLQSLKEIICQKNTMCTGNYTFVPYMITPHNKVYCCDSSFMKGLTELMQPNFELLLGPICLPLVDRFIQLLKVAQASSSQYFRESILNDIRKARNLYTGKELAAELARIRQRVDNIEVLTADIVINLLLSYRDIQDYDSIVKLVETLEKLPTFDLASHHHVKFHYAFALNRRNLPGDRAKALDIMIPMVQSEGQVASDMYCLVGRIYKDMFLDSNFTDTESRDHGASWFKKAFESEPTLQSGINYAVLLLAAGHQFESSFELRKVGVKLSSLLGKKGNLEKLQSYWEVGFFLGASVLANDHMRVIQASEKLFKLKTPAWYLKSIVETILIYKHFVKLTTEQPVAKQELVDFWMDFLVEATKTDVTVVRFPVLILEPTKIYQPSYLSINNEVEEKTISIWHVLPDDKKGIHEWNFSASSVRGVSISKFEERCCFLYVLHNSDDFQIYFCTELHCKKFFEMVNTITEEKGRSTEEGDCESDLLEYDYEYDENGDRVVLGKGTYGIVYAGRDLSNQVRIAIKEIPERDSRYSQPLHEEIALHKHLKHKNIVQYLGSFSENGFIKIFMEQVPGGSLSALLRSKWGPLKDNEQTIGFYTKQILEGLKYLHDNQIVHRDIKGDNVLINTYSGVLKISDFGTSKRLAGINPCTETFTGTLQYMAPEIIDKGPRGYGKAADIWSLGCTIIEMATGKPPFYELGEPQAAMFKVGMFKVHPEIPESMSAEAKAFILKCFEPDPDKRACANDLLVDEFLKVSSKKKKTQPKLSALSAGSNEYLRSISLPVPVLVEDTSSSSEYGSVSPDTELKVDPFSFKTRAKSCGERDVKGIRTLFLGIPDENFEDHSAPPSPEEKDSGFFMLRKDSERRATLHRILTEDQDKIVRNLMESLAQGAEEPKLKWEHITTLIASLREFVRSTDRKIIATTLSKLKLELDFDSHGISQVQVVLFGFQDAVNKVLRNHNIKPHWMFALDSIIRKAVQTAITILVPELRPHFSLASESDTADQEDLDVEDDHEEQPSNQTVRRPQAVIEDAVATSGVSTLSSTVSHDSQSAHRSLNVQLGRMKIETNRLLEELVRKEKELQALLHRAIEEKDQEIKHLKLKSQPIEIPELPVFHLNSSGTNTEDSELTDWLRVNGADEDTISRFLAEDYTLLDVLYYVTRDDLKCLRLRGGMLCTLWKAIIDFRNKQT

SMILES	Kd [µM]
CCOc1cc2ncc(C#N)c(Nc3ccc(F)c(Cl)c3)c2cc1NC(=O)/C=C/CN(C)C [PELITINIB]	> 10
Nc1nc(Nc2ccc(S(N)(=O)=O)cc2)nn1C(=O)c1c(F)cccc1F [JNJ-7706621]	> 10
Oc1ccc(-c2nc(-c3ccncc3)c(-c3ccc(F)cc3)[nH]2)cc1 [SB-202190]	> 10
COCC(=O)NC/C=C/c1ccc2ncnc(Nc3ccc(Oc4ccc(C)nc4)c(C)c3)c2c1 [CP-724714]	> 10
NC(=O)c1ccc(-c2nc(-c3ccc4c(c3)OCO4)c(-c3ccccn3)[nH]2)cc1 [SB-431542]	> 10

Target: Dual specificity tyrosine-phosphorylation-regulated kinase 1B (Homo sapiens, UniProt Q9Y463)
Sequence (Q9Y463 whole entry): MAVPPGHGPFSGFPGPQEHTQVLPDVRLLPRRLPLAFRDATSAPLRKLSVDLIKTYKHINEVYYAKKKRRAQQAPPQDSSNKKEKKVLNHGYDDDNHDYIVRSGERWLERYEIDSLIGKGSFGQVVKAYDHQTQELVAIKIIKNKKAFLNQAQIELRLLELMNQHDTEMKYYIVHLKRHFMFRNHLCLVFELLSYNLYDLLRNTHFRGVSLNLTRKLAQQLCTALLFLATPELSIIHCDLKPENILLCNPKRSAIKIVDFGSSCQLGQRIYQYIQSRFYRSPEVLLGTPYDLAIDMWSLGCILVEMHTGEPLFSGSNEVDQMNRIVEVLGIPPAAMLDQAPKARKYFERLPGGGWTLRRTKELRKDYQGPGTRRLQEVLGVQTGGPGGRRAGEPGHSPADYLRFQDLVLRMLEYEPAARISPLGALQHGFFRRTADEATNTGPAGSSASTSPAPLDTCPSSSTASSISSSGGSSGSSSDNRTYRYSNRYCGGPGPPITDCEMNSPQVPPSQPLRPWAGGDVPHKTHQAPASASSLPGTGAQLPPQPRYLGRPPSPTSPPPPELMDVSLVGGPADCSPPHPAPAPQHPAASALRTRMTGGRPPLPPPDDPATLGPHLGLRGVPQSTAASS

SMILES	Kd [µM]
Nc1nc(Nc2ccc(S(N)(=O)=O)cc2)nn1C(=O)c1c(F)cccc1F [JNJ-7706621]	> 10
Oc1ccc(-c2nc(-c3ccncc3)c(-c3ccc(F)cc3)[nH]2)cc1 [SB-202190]	> 10
COCC(=O)NC/C=C/c1ccc2ncnc(Nc3ccc(Oc4ccc(C)nc4)c(C)c3)c2c1 [CP-724714]	> 10
NC(=O)c1ccc(-c2nc(-c3ccc4c(c3)OCO4)c(-c3ccccn3)[nH]2)cc1 [SB-431542]	> 10

Target: Tyrosine-protein kinase Fer (Homo sapiens, UniProt P16591)
Sequence (P16591 whole entry): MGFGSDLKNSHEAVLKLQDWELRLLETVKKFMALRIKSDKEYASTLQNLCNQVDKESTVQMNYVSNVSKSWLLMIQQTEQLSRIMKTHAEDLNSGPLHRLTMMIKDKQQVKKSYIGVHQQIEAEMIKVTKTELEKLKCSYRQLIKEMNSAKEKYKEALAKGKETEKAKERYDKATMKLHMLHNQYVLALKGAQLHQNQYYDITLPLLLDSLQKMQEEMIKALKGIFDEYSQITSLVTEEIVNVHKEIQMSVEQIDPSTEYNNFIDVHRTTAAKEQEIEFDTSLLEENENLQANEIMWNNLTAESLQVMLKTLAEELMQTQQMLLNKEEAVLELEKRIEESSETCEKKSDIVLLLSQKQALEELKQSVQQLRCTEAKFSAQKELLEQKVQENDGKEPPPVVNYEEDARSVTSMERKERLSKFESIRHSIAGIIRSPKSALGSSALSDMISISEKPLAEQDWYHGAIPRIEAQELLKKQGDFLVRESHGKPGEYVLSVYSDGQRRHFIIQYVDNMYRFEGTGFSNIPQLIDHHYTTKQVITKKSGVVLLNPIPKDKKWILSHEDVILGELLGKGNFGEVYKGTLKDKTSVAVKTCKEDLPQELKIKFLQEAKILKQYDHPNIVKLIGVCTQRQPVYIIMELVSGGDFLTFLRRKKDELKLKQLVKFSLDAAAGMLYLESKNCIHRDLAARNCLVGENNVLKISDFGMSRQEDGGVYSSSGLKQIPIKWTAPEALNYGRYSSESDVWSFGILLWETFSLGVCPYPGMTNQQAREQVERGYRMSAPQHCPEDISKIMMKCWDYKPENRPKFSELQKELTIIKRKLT

SMILES	Kd [µM]
CCOc1cc2ncc(C#N)c(Nc3ccc(F)c(Cl)c3)c2cc1NC(=O)/C=C/CN(C)C [PELITINIB]	8.8
Nc1nc(Nc2ccc(S(N)(=O)=O)cc2)nn1C(=O)c1c(F)cccc1F [JNJ-7706621]	> 10
Oc1ccc(-c2nc(-c3ccncc3)c(-c3ccc(F)cc3)[nH]2)cc1 [SB-202190]	> 10
COCC(=O)NC/C=C/c1ccc2ncnc(Nc3ccc(Oc4ccc(C)nc4)c(C)c3)c2c1 [CP-724714]	> 10
NC(=O)c1ccc(-c2nc(-c3ccc4c(c3)OCO4)c(-c3ccccn3)[nH]2)cc1 [SB-431542]	> 10

Target: T2, Ephrin type-A receptor 3 (Homo sapiens, UniProt P29320)
T2 sequence (P29320 whole entry): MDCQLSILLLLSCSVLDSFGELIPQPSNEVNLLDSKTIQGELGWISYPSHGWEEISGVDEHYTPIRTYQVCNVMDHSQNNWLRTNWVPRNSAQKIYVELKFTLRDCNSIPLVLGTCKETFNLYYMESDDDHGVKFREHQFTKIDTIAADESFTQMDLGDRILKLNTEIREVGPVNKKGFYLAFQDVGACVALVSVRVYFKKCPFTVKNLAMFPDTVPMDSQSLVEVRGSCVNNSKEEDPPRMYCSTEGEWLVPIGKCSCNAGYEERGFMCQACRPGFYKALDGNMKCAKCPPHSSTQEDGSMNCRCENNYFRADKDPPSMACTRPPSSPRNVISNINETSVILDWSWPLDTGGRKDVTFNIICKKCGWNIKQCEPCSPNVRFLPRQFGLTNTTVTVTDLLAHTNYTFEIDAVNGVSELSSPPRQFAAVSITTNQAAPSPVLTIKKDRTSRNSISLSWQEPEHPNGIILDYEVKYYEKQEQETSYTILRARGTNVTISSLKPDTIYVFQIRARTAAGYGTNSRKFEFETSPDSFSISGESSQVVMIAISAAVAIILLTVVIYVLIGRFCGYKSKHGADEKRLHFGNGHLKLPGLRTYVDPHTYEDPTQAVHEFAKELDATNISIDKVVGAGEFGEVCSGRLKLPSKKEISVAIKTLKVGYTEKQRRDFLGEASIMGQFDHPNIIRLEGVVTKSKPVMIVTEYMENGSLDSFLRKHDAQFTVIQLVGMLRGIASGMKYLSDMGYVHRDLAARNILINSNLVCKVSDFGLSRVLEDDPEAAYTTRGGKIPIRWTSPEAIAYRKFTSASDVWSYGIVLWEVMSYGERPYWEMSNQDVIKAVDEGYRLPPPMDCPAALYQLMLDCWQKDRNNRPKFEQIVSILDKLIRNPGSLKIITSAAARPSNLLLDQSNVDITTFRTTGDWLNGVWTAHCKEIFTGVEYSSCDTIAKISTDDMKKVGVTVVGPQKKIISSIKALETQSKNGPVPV

SMILES	Kd [µM]
Nc1nc(Nc2ccc(S(N)(=O)=O)cc2)nn1C(=O)c1c(F)cccc1F [JNJ-7706621]	> 10
Oc1ccc(-c2nc(-c3ccncc3)c(-c3ccc(F)cc3)[nH]2)cc1 [SB-202190]	> 10
COCC(=O)NC/C=C/c1ccc2ncnc(Nc3ccc(Oc4ccc(C)nc4)c(C)c3)c2c1 [CP-724714]	> 10
NC(=O)c1ccc(-c2nc(-c3ccc4c(c3)OCO4)c(-c3ccccn3)[nH]2)cc1 [SB-431542]	> 10
